From US12473295B2, “Substituted straight chain spiro derivatives” (Janssen Pharmaceutica NV, priority 2019, dated 2025)
Counter-ions that a name gives are not always drawn.

What was measured:
iCell Cardiomyocytes2 = experiment: Ca2+-fluorescence assay in human pluripotent stem cell-derived cardiomyocytes (CTCM human), iCell Cardiomyocytes2; format: cell-based; design: key: Green: No concern; Yellow: Low concern; Red: High concern; Black: Very high concern due to arrhythmic events; conditions: 30 min
Method in brief: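 Beating iCell Cardiomyocytes2 monolayers (5–7 days after plating), loaded with Cal520 (final 1.58 μM) in HEPES-Tyrode, received compound at 0.1–5 μM or 0.1–30 μM (n=4, 0.1% DMSO). Ca2+ transients read by FDSS/μCell at 37 °C; beat rate, amplitude, CTD90 and arrhythmia-like events scored.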

Cor.4U Cardiomyocytes = experiment: Ca2+-fluorescence assay in human pluripotent stem cell-derived cardiomyocytes (CTCM human), Cor.4U Cardiomyocytes; format: cell-based; design: key: Green: No concern; Yellow: Low concern; Red: High concern; Black: Very high concern due to arrhythmic events; conditions: 30 min
Protocol: 7) Cardio-Electrophysiological Effects of the Testing Compounds in Synchronously Beating Human Pluripotent Stem Cell-Derived Cardiomyocytes (hSC-CMs) Using a Ca^2+-Fluorescence Assay (CTCM Human)
Compounds were tested in the 96-well plates
Compounds were tested at 0.1 μM, 0.2 μM, 0.5 μM, 1 μM, 2.5 μM and 5 μM (n=4 per dose) on Cor.4U 9-Cardiomyocytes or on iCell® Cardiomyocytes2 […]
Dimethylsulfoxide (DMSO). The solutions of the compound in DMSO or its solvent (final concentration of 0.1% DMSO; n=8)
Preparation of Test Article and Controls
Tested compounds were dissolved in DMSO at 1000-fold the intended concentrations. A compound “mother-plate” was made, containing the test compounds and positive and negative controls at 1000-fold the final concentrations. At the experiment day, these stock solutions were diluted with Tyrode (Sigma), supplemented with 10 mM HEPES (Gibco), to 2-fold the intended concentration (in round bottom compound plates). Final DMSO concentration in test solutions and vehicle control was 0.1%.
hSC-CMs (Cor.4U® Cardiomyocytes) were obtained from CDI (Ncardia, Germany). Cells are pre-plated and seeded in fibronectin-coated 96-well plates at a density suited to form a monolayer and maintained in culture in a stage incubator (37° C., 5% CO2), according to the instructions of the cell provider.
Before Start of Experiment
At least one hour before the start of the experiments the normal cell medium was replaced with Tyrode solution with Calcium dye (see below).
Cal 520 dye (AAT Bioquest) was dissolved in 11 ml of Tyrode supplemented with 10 mM HEPES and warmed up to 37° C. before adding to the cells.
35 μl cell culture medium was removed from each well and replaced with 35 μl of pre-warmed Cal 520 dye solution and cell plate was incubated for 45 min at 37° C./5% CO2. Cells were incubated for 5 min at 37° C.
Spontaneous electrical activity is recorded, using Cal520™ (AAT Bioquest) calcium fluorescence-dye signaling. This dye integrates the total intracellular calcium activity over the whole well. A bottle of Cal520 dye (50 μg, MW: 1103/mol) is dissolved with 50 μl DMSO as a stock solution of 0.9 mM. 50 μL of the stock solution of the dye was added to 10 ml Tryodes solution to have dye concentration of 4.5 μM. Subsequently, 35 μl of this dye solution was added into each well, to have a final dye concentration of 1.58 μM. The current dye protocol on this CTCM human assay was established recently (Ivan Kopljar et al, Journal of Pharmacological and toxicological methods 2018. 91: 80-86; Lu et al., Tox Sci 2019. 170 (2): 345-356).
Fluorescent signals (Ca^2+ transient morphology) were measured using the Functional Drug Screen System (FDSS/μCell; Hamamatsu, Japan) and the recordings were subsequently analyzed off-line, using appropriate software e.g. Notocord.
The cell plate was loaded into the FDSS/μCell for a test run: Ca^2+ transients were measured for 4 minutes to check for synchronous beating of the cardiomyocytes in each well. All 96 wells were measured simultaneously (sampling interval: 0.06 s, short exposure time: 10 ms; excitation wavelength 480 nm; emission wavelength 540 nm; FDSS/μCell warmed to 37° C.).
During the compound addition step, 100 μl of the respective double-concentrated test solutions was pipetted into each well simultaneously.
Data were analyzed off-line using appropriate software e.g. Notocord-Hem (version 4.3).
The following parameters of the Ca^2′ transient morphology were measured: • beat rate (BR) • amplitude of the Ca^2+ transient (Amp), • CTD90: Ca^2+ transient duration at 90% (time to 90% of the initial base value).
The presence of various ‘arrhythmia-like’ activities were also noted during the experimental periods. […]

CCN(C(=O)c1cc(F)ccc1Oc1nncnc1N1CCC2(C1)CN([C@H](CCCN(C)CCC(=O)N(C)C)C(C)C)C2)C(C)C [Compound 246, (R)-2-((5-(2-(6-((3-(dimethylamino)-3-oxopropyl)(methyl)amino)-2-methylhexan-3-yl)-2,6-diazaspiro[3.4]octan-6-yl)-1,2,4-triazin-6-yl)oxy)-N-ethyl-5-fluoro-N-isopropylbenzamide formate]
Green: Color @ 0.1 μM (hazard score) (iCell Cardiomyocytes2; iCell Cardiomyocytes2, 0.1 μM) | Color @ 0.2 μM (hazard score) (iCell Cardiomyocytes2; iCell Cardiomyocytes2, 0.2 μM) | Color @ 0.5 μM (hazard score) (iCell Cardiomyocytes2; iCell Cardiomyocytes2, 0.5 μM) | Color @ 1 μM (hazard score) (iCell Cardiomyocytes2; iCell Cardiomyocytes2, 1 μM) | Color @ 2.5 μM (hazard score) (iCell Cardiomyocytes2; iCell Cardiomyocytes2, 2.5 μM) | Color @ 5 μM (hazard score) (iCell Cardiomyocytes2; iCell Cardiomyocytes2, 5 μM)

CC(C)[C@@H](CCC(C)(C)N)N1CC2(CCN(c3ncnnc3Oc3ccc(F)cc3-c3cncnc3C3CC3)C2)C1 (single isomer, unassigned) [Compound 37, (*R)-5-(6-(6-(2-(4-cyclopropylpyrimidin-5-yl)-4-fluorophenoxy)-1,2,4-triazin-5-yl)-2,6-diazaspiro[3.4]octan-2-yl)-2,6-dimethylheptan-2-amine]
Green: Color @ 0.1 μM (hazard score) (Cor.4U Cardiomyocytes; 0.1 μM) | Color @ 0.2 μM (hazard score) (Cor.4U Cardiomyocytes; 0.2 μM) | Color @ 0.5 μM (hazard score) (Cor.4U Cardiomyocytes; 0.5 μM) | Color @ 1 μM (hazard score) (Cor.4U Cardiomyocytes; 1 μM) | Color @ 2.5 μM (hazard score) (Cor.4U Cardiomyocytes; 2.5 μM) | Color @ 5 μM (hazard score) (Cor.4U Cardiomyocytes; 5 μM)
